Data as given in patent US12173007B2, “Imidazopyridazine IL-17 inhibitor compounds” (Janssen Pharmaceutica NV, priority 2021, dated 2024).

Tests used:
[1] = tested on: IL-17A-induced G-CSF production in human normal keratinocyte (NHK); test: NHK assay: IL-17A-induced G-CSF production in normal human keratinocytes; type: cell-based; conditions: Homo sapiens, Keratinocyte, 24 h, IL-17A 5 ng/mL, G-CSF by HTRF, average if tested more than once
Outline: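 IC50 derives from G-CSF in supernatants, quantified by HTRF from a standard curve, with CellTiter-Glo viability compared to DMSO control. Before a 24 h, 37°C culture of normal human keratinocytes at 3000–4000 cells/well, compound dilutions were preincubated 1 h at rt with human IL-17A (5 ng/mL final), with 0.2% DMSO and 5% FBS.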

[2] = target: T1, IL-17A(FLAG-Tagged): IL-17RA(His-Tagged) binding (Homo sapiens, UniProt Q16552, K93Q); test: IL-17A(FLAG-tagged):IL-17RA(His-tagged) binding disruption Eu-HTRF assay, Protocol 1; conditions: FLAG-IL-17A 2.5 nM; average if tested more than once
T1 sequence (Q16552 with tags, fused parts or gaps K93Q): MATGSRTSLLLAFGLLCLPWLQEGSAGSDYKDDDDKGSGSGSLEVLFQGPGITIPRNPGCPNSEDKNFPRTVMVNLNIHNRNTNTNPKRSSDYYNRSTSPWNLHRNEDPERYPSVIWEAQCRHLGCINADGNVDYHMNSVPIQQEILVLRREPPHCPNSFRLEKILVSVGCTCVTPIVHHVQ
Source text: IL-17A(FLAG-Tagged): IL-17RA(His-Tagged) Binding Disruption Eu-HTRF Assay
An antibody directed against the FLAG tag of IL-17A (SEQ ID NO: 1) is labeled with the HTRF donor chromophore (Europium-cryptate). IL-17A is present as a dimer that is “locked into” this quaternary structure due to the formation of loop-spanning […] disulfide bridges. The construct of IL-17RA used in the assay excludes the […] portion of the receptor and is fused to a C-terminal 10×His tag (SEQ ID NO:2). An antibody directed against the His tag of the IL-17RA chimera is labeled with the HTRF acceptor chromophore (“D2”). The fluorescence-resonance energy transfer (FRET) depends on the vicinity of the donor chromophore to the acceptor, and interruption of the binding between the IL-17A and IL-17RA causes the reduction/loss of FRET. Therefore, this assay allows to evaluate the compound effect on the binding IL-17A and IL-17RA by monitoring the fluorescence intensity of donor vs acceptor. The assay was run using either Protocol 1 or Protocol 2 as described below.
Protocol 1. 40 nl of 2-fold serial diluted compound solution for total 22 dilution points is added into each well of a 1536-well, white, low-volume, non-binding plate (Greiner #782904), then 2 μl of FLAG tagged IL-17A at 2×final concentration (2.5 nM) in solution of PBS+0.01% Triton-X100 is added to each well. The assay plate is briefly centrifuged then incubated for 1 h at rt. A mixed solution is prepared containing 2×5 nM 10HIS×IL-17RA, 2×2.5 nM Eu-anti-FLAG (CISBIO), 2×5 nM D2-anti-HIS (CISBIO) in PBS+0.01% Triton-X100+200 mM Potassium Fluoride (Sigma 60238) and 2 μl of mix is added to each well of the assay plate. The plate is briefly centrifuged then incubated for 2 h at rt. The HTRF intensities at the wavelength of donor (620 nm) and acceptor (665 nm) are measured using BMG Pherastar. The ratio between intensities at two wavelengths is calculated and plotted against the compound concentration and the data is fitted to a one-site competition model to yield IC50 of the compound.

[3] = target: T1, IL-17A(FLAG-Tagged): IL-17RA(His-Tagged) binding; test: IL-17A(FLAG-tagged):IL-17RA(His-tagged) binding disruption Eu-HTRF assay, Protocol 2; conditions: FLAG-IL-17A 1 nM; average if tested more than once
Outline: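 FLAG-tagged IL-17A (1 nM final) was preincubated with compound (2-fold serial dilutions, 22 points) for 1 h at rt in PBS + 0.01% Triton X-100. 10×His-IL-17RA, Eu-anti-FLAG and D2-anti-His in buffer containing KF were then added for 2 h at rt. IC50 came from the 665/615 nm HTRF ratio fitted to a one-site competition model.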

[4] = moderate-to-severe HS, seven of nine patients, open-label pilot-trial; cited from earlier work

Molecule: COC[C@H](c1cnn2cc([C@@H](NC(=O)c3nonc3C3CC3)C3CCC(F)(F)CC3)nc2c1)N1CC(F)(F)CNC1=O [Example 11, 4-Cyclopropyl-N—((S)-(7-((S)-1-(5,5-difluoro-2-oxotetrahydropyrimidin-1(2H)-yl)-2-methoxyethyl)imidazo[1,2-b]pyridazin-2-yl)(4,4-difluorocyclohexyl)methyl)-1,2,5-oxadiazole-3-carboxamide]
- IC50 [1]: < 0.05 µM
- IC50 [2]: < 0.05 µM
- IC50 [3]: < 0.05 µM

Molecule: Cc1nonc1C(=O)N[C@H](c1cn2ncc([C@@H](COC3CC3)N3CC(F)(F)CNC3=O)cc2n1)C1CCC(F)(F)CC1 [Example 16, N—((S)-(7-((S)-2-Cyclopropoxy-1-(5,5-difluoro-2-oxotetrahydropyrimidin-1(2H)-yl)ethyl)imidazo[1,2-b]pyridazin-2-yl)(4,4-difluorocyclohexyl)methyl)-4-methyl-1,2,5-oxadiazole-3-carboxamide]
- IC50 [1]: < 0.05 µM
- IC50 [2]: < 0.05 µM
- IC50 [3]: < 0.05 µM

Molecule: O=C(N[C@H](c1cn2ncc(CN3CCCCNC3=O)cc2n1)C1CCC(F)(F)CC1)c1nonc1C1CC1 [Example 30, (S)-4-Cyclopropyl-N-((4,4-difluorocyclohexyl)(7-((2-oxo-1,3-diazepan-1-yl)methyl)imidazo[1,2-b]pyridazin-2-yl)methyl)-1,2,5-oxadiazole-3-carboxamide]
- IC50 [1]: > 0.1 µM
- IC50 [2]: 0.05 to 0.1 µM

Molecule: CC(C)n1nccc1C(=O)N[C@H](c1cn2ncc(CN3CCCCNC3=O)cc2n1)C1CCC(F)(F)CC1 [Example 31, (S)—N-((4,4-Difluorocyclohexyl)(7-((2-oxo-1,3-diazepan-1-yl)methyl)imidazo[1,2-b]pyridazin-2-yl)methyl)-1-isopropyl-1H-pyrazole-5-carboxamide]
- IC50 [1]: > 0.1 µM
- IC50 [2]: > 0.1 µM

Molecule: Cc1nonc1C(=O)N[C@H](c1cn2ncc(CN3CC(C)(C)CNC3=O)cc2n1)C1CCC(F)(F)CC1 [Example 32, (S)—N-((4,4-Difluorocyclohexyl)(7-((5,5-dimethyl-2-oxotetrahydropyrimidin-1(2H)-yl)methyl)imidazo[1,2-b]pyridazin-2-yl)methyl)-4-methyl-1,2,5-oxadiazole-3-carboxamide]
- IC50 [1]: > 0.1 µM
- IC50 [2]: > 0.1 µM

Molecule: CC1(C)CNC(=O)N(Cc2cnn3cc([C@@H](NC(=O)c4nonc4C4CC4)C4CCC(F)(F)CC4)nc3c2)C1 [Example 33, (S)-4-Cyclopropyl-N-((4,4-difluorocyclohexyl)(7-((5,5-dimethyl-2-oxotetrahydropyrimidin-1(2H)-yl)methyl)imidazo[1,2-b]pyridazin-2-yl)methyl)-1,2,5-oxadiazole-3-carboxamide]
- IC50 [1]: > 0.1 µM
- IC50 [2]: 0.05 to 0.1 µM

Molecule: CC(C)n1nccc1C(=O)N[C@H](c1cn2ncc(CN3CC(C)(C)CNC3=O)cc2n1)C1CCC(F)(F)CC1 [Example 34, (S)—N-((4,4-Difluorocyclohexyl)(7-((5,5-dimethyl-2-oxotetrahydropyrimidin-1(2H)-yl)methyl)imidazo[1,2-b]pyridazin-2-yl)methyl)-1-isopropyl-1H-pyrazole-5-carboxamide]
- IC50 [1]: > 0.1 µM
- IC50 [2]: > 0.1 µM

Molecule: N#CC1([C@H](c2cnn3cc([C@@H](NC(=O)c4nonc4C4CC4)C4CCC(F)(F)CC4)nc3c2)N2CC(F)(F)CNC2=O)CCC1 [Example 85, N—((S)-(7-((S)-(1-Cyanocyclobutyl)(5,5-difluoro-2-oxotetrahydropyrimidin-1(2H)-yl)methyl)imidazo[1,2-b]pyridazin-2-yl)(4,4-difluorocyclohexyl)methyl)-4-cyclopropyl-1,2,5-oxadiazole-3-carboxamide]
- IC50 [1]: > 0.1 µM
- IC50 [2]: < 0.05 µM

Molecule: O=C(N[C@H](c1cn2ncc(CN3CC(F)(F)C(F)(F)CNC3=O)cc2n1)C1CCC(F)(F)CC1)c1nonc1C1CC1 [Example 86, (S)-4-Cyclopropyl-N-((4,4-difluorocyclohexyl)(7-((5,5,6,6-tetrafluoro-2-oxo-1,3-diazepan-1-yl)methyl)imidazo[1,2-b]pyridazin-2-yl)methyl)-1,2,5-oxadiazole-3-carboxamide]
- IC50 [1]: < 0.05 µM
- IC50 [2]: < 0.05 µM
- IC50 [3]: < 0.05 µM

Molecule: secukinumab
- patients achieved HiSCR [4]: 78%
